Legend:
CDK7 [1] = target: T1, CDK7 (Homo sapiens, UniProt P50613); test: Rescue of compound-induced CDK7 degradation in Jurkat cells (ligand and proteasome dependence), immunoblot; assay type: cell-based; conditions: for rescue of the CDK7 degradation induced by bispecific compound 3 / rescue of the CDK7 degradation induced by bispecific compound 20: Jurkat cells pretreated 2 h (10 μM YKL-5-124, 10 μM DGY-05-180, 0.2 μM Bortezomib, 1 μM MLN4924); for rescue of the CDK7 degradation induced by bispecific compound 3: then 1 μM compound 3 for 4 h; for rescue of the CDK7 degradation induced by bispecific compound 20: then 1 μM compound 20 for 4 h; for dependence of the induced CDK7 degradation: Jurkat cells, 1 μM compound for 4 h after 2 h pretreatment with competitor or pathway inhibitor
T1 construct: endogenous in cells; host or cells: Jurkat cells
Experimental: (§1) Jurkat cells were treated with DMSO or 1 μM of compounds 1-26 for 6 hours. Cells were then lysed in radioimmunoprecipitation assay (RIPA) buffer (Sigma® Life Science) containing protease/phosphatase inhibitor cocktail (Roche). The protein concentrations were measured by bicinchoninic acid assay (BCA) analysis (Pierce™). Equal amounts of protein were resolved by 4-12% Tris-Base gels (Invitrogen™), and then transferred to the immunoblot polyvinylidene difluoride (PVDF) membrane (BioRad), and immunoblotted with primary antibodies against CDK7 (cell signaling) and glyceraldehyde 3-phosphate dehydrogenase (GAPDH) (Cell Signaling Technology®), and then immunoblotted with IRDye®800-labeled goat anti-rabbit immunoglobulin G (IgG) and IRDye®680-labeled goat anti-mouse IgG (LI-COR®) secondary antibodies. The membranes were detected on an Odyssey® CLx system.
Jurkat cells were pretreated with 10 μM YKL-5-124 (the parental compound and known CDK7 inhibitor), 10 μM DGY-05-180 (VHL ligand), 0.2 μM Bortezomib (a proteasome inhibitor available from, e.g., Millipore Sigma, Cat. No. 179324-69-7, Burlington, MA), and 1 μM MLN4924 (a neddylation inhibitor available from, e.g., MedChemExpress (MCE®), Cat. No. HY-70062, Monmouth Junction, NJ), for 2 h, and then treated with 1 μM compound 3 or 20 for 4 h. Cells were lysed and immunoblotted as described in Example 27 with antibodies to CDK7 and GAPDH. The structures of YKL-5-124, DGY-05-180, Bortezomib and MLN4924 are set forth below.

CDK7 [2] = target: T1, CDK7; test: CDK7 degradation in Jurkat cells by immunoblot; assay type: cell-based; conditions: 1 μM compound, 6 hours, vs DMSO
Experimental: as §1

T1 sequence (P50613 2-346 limits assumed): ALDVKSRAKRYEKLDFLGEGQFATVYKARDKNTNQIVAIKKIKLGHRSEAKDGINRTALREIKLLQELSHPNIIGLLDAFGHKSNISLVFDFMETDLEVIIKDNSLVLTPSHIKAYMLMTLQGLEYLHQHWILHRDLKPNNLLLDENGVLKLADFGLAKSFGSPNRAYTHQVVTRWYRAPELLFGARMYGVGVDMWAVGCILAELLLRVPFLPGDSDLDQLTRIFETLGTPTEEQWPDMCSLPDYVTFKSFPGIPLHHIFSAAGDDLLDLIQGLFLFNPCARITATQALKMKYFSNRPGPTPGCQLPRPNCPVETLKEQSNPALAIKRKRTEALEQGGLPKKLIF
T1 sequence (P51946 whole entry partner): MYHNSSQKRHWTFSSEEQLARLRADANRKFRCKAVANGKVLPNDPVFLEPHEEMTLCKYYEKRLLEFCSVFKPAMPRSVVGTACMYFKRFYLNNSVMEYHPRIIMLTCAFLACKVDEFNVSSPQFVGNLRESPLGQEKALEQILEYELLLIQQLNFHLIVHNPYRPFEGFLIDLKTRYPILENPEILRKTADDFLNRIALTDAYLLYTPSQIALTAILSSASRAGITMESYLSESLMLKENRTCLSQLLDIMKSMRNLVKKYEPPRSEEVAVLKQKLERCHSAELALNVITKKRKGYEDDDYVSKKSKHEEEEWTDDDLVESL
T1 sequence (P51948 whole entry partner): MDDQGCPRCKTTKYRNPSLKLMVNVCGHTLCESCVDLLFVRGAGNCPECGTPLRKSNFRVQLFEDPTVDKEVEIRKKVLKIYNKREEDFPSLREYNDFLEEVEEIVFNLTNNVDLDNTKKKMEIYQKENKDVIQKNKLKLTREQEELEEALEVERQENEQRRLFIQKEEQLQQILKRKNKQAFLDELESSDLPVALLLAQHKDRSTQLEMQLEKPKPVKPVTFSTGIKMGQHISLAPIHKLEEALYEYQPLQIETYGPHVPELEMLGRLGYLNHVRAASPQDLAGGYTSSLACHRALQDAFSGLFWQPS

SMILES | rescue of the CDK7 degradation induced by bispecific compound 3 (CDK7 [1]) | rescue of the CDK7 degradation induced by bispecific compound 20 (CDK7 [1]) | degradation of CDK7 (immunoblot) (CDK7 [2]) | dependence of the induced CDK7 degradation (CDK7 [1])
CC(C)C[C@H](NC(=O)[C@H](Cc1ccccc1)NC(=O)c1cnccn1)B(O)O [Bortezomib] | rescued the CDK7 degradation | rescued the CDK7 degradation |  | 
Cc1ncsc1-c1ccc([C@H](C)NC(=O)[C@@H]2C[C@@H](O)CN2C(=O)[C@@H](NC(=O)CCCNC(=O)c2ccc(C(=O)Nc3n[nH]c4c3CN(C(=O)N[C@H](CN(C)C)c3ccccc3)C4(C)C)cc2)C(C)(C)C)cc1 [Compound 3, N1-(5-(((S)-2-(dimethylamino)-1-phenylethyl)carbamoyl)-6,6-dimethyl-1,4,5,6-tetrahydropyrrolo[3,4-c]pyrazol-3-yl)-N4-(4-(((S)-1-((2S,4R)-4-hydroxy-2-(((S)-1-(4-(4-methylthiazol-5-yl)phenyl)ethyl)carbamoyl)pyrrolidin-1-yl)-3,3-dimethyl-1-oxobutan-2-yl)amino)-4-oxobutyl)terephthalamide] |  |  | induced the degradation of CDK7 | both ligand- and proteasome-dependent
Cc1ncsc1-c1ccc([C@H](C)NC(=O)[C@@H]2C[C@@H](O)CN2C(=O)[C@@H](NC(=O)CCCCNC(=O)c2ccc(C(=O)Nc3n[nH]c4c3CN(C(=O)N[C@H](CN(C)C)c3ccccc3)C4(C)C)cc2)C(C)(C)C)cc1 [Compound 20, N^1-(5-(((S)-2-(dimethylamino)-1-phenylethyl)carbamoyl)-6,6-dimethyl-1,4,5,6-tetrahydropyrrolo[3,4-c]pyrazol-3-yl)-N^4-(5-(((S)-1-((2S,4R)-4-hydroxy-2-(((S)-1-(4-(4-methylthiazol-5-yl)phenyl)ethyl)carbamoyl)pyrrolidin-1-yl)-3,3-dimethyl-1-oxobutan-2-yl)amino)-5-oxopentyl)terephthalamide] |  |  | induced the degradation of CDK7 | both ligand- and proteasome-dependent

More lines, now with the values ahead:

rescue of the CDK7 degradation induced by bispecific compound 3 (CDK7 [1]) | rescue of the CDK7 degradation induced by bispecific compound 20 (CDK7 [1]) | degradation of CDK7 (immunoblot) (CDK7 [2]) | dependence of the induced CDK7 degradation (CDK7 [1]) | SMILES
rescued the CDK7 degradation | rescued the CDK7 degradation |  |  | NS(=O)(=O)OC[C@@H]1C[C@@H](n2ccc3c(N[C@H]4CCc5ccccc54)ncnc32)C[C@@H]1O [MLN4924]
rescued the CDK7 degradation | rescued the CDK7 degradation |  |  | C=CC(=O)Nc1ccc(C(=O)Nc2n[nH]c3c2CN(C(=O)N[C@H](CN(C)C)c2ccccc2)C3(C)C)cc1 [YKL-5-124]
